Results taken from patent publication US11179391B2, “Compound with kinase inhibitory activity and preparation method and use thereof” (priority 2017, dated 2021).
Counter-ions that a name gives are not always drawn. Like-named read-outs stand apart in the source and are kept apart here.

Columns and labels:
Assay type in all cases: biochemical
[1] = biological target: CDK9/cyclinTl (Homo sapiens, UniProt P50750); assay: Determination of CDK activity (Caliper mobility shift, FAM-P8 peptide): CDK9
Sequence of CDK9/cyclinTl (P50750 whole entry): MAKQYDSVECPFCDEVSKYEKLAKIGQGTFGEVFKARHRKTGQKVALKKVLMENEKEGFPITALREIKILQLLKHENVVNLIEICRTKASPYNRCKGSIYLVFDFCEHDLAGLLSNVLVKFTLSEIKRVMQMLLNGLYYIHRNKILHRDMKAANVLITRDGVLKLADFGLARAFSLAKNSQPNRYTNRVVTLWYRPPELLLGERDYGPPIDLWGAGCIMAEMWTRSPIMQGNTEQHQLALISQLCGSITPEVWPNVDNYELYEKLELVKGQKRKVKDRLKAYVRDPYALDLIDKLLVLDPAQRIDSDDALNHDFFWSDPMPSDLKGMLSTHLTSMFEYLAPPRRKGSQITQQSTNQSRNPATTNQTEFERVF
Sequence of CDK9/cyclinTl (O60563 whole entry partner): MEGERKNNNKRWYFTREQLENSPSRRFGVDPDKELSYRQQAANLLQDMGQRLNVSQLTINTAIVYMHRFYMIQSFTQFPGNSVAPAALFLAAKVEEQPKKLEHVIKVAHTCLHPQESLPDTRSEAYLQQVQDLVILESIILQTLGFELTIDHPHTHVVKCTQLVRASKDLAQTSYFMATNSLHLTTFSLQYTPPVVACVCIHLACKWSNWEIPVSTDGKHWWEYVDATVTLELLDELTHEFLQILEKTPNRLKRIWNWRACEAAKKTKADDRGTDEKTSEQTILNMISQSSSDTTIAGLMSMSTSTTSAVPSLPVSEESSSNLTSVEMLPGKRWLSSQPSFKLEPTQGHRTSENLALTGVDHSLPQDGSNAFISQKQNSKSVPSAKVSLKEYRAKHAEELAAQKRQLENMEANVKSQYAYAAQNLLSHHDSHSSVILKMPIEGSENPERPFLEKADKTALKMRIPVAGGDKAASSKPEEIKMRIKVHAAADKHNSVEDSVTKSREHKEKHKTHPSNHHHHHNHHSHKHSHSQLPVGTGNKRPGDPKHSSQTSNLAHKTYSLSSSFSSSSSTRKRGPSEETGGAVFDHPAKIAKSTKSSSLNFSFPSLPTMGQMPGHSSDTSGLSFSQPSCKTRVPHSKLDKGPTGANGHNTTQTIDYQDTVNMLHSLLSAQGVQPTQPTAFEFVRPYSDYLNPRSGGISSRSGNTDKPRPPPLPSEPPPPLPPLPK
Description: (§1) In vitro, CDK (CDK4, CDK6, CDK1, CDK2, CDK7, and CDK9) kinase activity was tested by the following method.
(§2) 1. Prepared 1× Kinase Buffer and Stop Buffer for the Test
(§3) 3) 1× Kinase Base Buffer (CDK7 and 9).
(§4) 1) Diluted the compound to 50 times of the maximum concentration with 100% DMSO. For example, if the desired maximum inhibitory concentration is 10 μM, then a DMSO solution of 500 μM concentration is required.
(§5) 2) Transferred the compound to a 96-well plate and serially diluted the compound from a 100% DMSO solution at a ratio of 30 μm to 60 μm for a total of 10 concentrations gradients. 3) Transferred 100 μm of 100% DMSO to two empty wells as a no compound control and a no enzyme control.
(§6) 1) Transferred 5 μm of each compound from the 96-well intermediate plate to a 384-well plate. […] A2 of the 96-well plate was transferred to A3 and A4 of the 384-well plate, and so on.
(§7) 1) Prepared a 2.5× enzyme solution: added kinase into 1× kinase base buffer.
(§8) 2) Prepared a 2.5× peptide solution: added FAM-labeled peptide and ATP into the 1× kinase base buffer.
(§9) 3) Transferred the 2.5× enzyme solution to the assay plate: Assay plate already contained 5 μm of 10% DMSO and transferred 10 μm of 2.5× enzyme solution to each well.
(§10) 4) Incubated at room temperature for 10 min.
(§11) 5) Transferred the 2.5× peptide solution to the assay plate: added 10 μm of 2.5× peptide solution to each well of the 384-well assay plate.
(§12) 6) Kinase reaction and termination: incubated at 28° C. for a specified period and added 25 μm of stop buffer to stop the reaction.
(§13) 5. Caliper Reading: Collect Data on Caliper.
(§14) 1) Copied conversion data from Caliper program and Converted conversion values to inhibition values: Inhibition rate (%)=(1−OD value of the compound-OD value of the control well)/(OD value of the control empty-OD value of the control well)*100%.
(§15) 2) Fitted the data in XLFit excel add-in version 4.3.1 to give the corresponding IC50 values.

[2] = biological target: CDK4/CycD3 (Homo sapiens, UniProt P11802); assay: Determination of CDK activity (Caliper mobility shift, FAM-P8 peptide): CDK4; conditions: read-out: CDK4 enzymatic inhibitory activity (IC50)
Sequence of CDK4/CycD3 (P11802 whole entry): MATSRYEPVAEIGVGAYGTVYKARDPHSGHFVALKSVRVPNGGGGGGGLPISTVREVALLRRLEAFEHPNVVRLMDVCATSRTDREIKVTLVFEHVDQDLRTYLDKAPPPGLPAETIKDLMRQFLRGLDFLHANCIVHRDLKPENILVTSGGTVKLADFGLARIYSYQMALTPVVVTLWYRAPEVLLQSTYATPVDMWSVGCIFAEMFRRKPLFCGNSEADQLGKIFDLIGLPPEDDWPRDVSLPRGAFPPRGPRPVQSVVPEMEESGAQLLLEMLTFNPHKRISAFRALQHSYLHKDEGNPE
Sequence of CDK4/CycD3 (P30281 whole entry partner): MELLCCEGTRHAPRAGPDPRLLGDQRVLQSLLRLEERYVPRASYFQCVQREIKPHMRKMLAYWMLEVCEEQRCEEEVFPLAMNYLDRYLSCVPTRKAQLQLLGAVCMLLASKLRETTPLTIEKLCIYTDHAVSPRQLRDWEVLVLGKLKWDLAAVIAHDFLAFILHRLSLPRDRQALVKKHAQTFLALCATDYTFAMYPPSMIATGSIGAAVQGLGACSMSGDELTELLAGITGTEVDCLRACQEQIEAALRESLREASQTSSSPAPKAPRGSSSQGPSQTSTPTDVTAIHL
Description: as §1
(§16) CDK and raw materials used here: CDK4/CycD3 (Carna, Cat. No 04-105, Lot. No 10CBS-0429 C, GST-CDK4(1-303end)/GST-CycD3(1-292end)); CDK6/cycD3 (Carna, Cat. No 04-107, Lot. No 09CBS-0622K, GST-CDK6(1-326(end))); CDK1/CyclinB (Millipore, Cat. 14-450k, Lot. No 25729U, His-CDK1+GST-cyclinB); CDK2/CycA2 (Carna, Cat. No 04-103, Lot. No 06CBS-3024, GST-CDK2 (1-298(end))); CDK7/CyclinH/MAT1 (Millipore, Cat. No 14-476M, Lot. No WAB0365-A, His-CDK7+GST-MAT1+cyclinH); CDK9/cyclinTl (Millipore, Cat. No 14-685K, Lot. No. 2476163-A, His-CDK9+cyclinTl); Peptide FAM-P8 (GL Biochem, Cat. No. 112396, Lot. No. P100804-XZ112396); ATP (Sigma, Cat. No. A7699-1G, CAS No. 987-65-5); DMSO (Sigma, Cat. No. D2650, Lot. No. 474382); EDTA (Sigma, Cat. No. E5134, CAS No. 60-00-4); 96-well plate (Corning, Cat. No. 3365, Lot. No. 22008026); 384-well plate (Corning, Cat. No. 3573, Lot. No. 12608008); Staurosporine (Sigma, Cat. No. S4400-1MG, Lot. No. 046K4080).
as §2
2) 1× Kinase Base Buffer (CDK4).
as §4, §5
(§17) 4) Prepared intermediate plate and transferred the compound of 10 μm concentration from the original plate to the intermediate plate, and then 90 μm of 1× kinase buffer was added and mixed by shaking for 10 min.
(§18) 4) Preparing intermediate plate and transferred the compound of […] concentration from the original plate to the intermediate plate, and then 90 μm of 1× kinase buffer was added and mixed by shaking for 10 min.
(§19) 1) Transferred 5 μm of each compound from the 96-well intermediate plate to a 384-well plate. For example, A1 of the 96-well plate was transferred to A1 and A2 of the 384-well plate. A2 of the 96-well plate was transferred to A3 and A4 of the 384-well plate, and so on.
as §7, §8, §9, §10, §11, §12, §13, §14, §15

[3] = biological target: CDK2/CycA2 (Homo sapiens, UniProt P24941); assay: Determination of CDK activity (Caliper mobility shift, FAM-P8 peptide): CDK2; conditions: read-out: CDK2 enzymatic inhibitory activity (IC50)
Description: as §1, §2
(§20) 1) 1× Kinase Base Buffer (CDK1, 2, and 6).
as §4, §5, §6, §7, §8, §9, §10, §11, §12, §13, §14, §15

[4] = biological target: CDK1/CyclinB (Homo sapiens, UniProt P06493); assay: Determination of CDK activity (Caliper mobility shift, FAM-P8 peptide): CDK1; conditions: read-out: CDK1 enzymatic inhibitory activity (IC50)
Sequence of CDK1/CyclinB (P06493 whole entry): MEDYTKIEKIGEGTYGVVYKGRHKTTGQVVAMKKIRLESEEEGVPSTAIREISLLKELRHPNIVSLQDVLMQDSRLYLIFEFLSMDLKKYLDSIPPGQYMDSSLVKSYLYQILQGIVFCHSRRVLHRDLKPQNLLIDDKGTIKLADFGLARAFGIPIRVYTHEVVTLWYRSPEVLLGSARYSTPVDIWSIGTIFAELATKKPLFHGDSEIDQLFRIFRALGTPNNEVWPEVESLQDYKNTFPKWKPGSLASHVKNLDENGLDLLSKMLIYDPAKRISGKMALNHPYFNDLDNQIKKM
Sequence of CDK1/CyclinB (P14635 whole entry partner): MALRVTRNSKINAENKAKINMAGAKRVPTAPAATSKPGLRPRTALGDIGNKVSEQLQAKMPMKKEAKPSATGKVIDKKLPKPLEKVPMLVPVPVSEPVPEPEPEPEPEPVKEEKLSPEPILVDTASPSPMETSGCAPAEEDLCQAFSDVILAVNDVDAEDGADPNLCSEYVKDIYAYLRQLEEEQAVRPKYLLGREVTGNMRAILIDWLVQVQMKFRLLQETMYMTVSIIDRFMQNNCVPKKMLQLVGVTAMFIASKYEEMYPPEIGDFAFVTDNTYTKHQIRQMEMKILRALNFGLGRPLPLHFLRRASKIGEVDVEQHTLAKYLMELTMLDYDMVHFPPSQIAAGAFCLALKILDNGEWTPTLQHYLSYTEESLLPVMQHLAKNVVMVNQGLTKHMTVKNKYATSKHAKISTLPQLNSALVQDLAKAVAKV
Description: as §1, §2, §20, §4, §5, §6, §7, §8, §9, §10, §11, §12, §13, §14, §15

[5] = biological target: CDK6/cycD3 (Homo sapiens, UniProt Q00534); assay: Determination of CDK activity (Caliper mobility shift, FAM-P8 peptide): CDK6; conditions: read-out: CDK6 enzymatic inhibitory activity (IC50)
Sequence of CDK6/cycD3 (Q00534 whole entry): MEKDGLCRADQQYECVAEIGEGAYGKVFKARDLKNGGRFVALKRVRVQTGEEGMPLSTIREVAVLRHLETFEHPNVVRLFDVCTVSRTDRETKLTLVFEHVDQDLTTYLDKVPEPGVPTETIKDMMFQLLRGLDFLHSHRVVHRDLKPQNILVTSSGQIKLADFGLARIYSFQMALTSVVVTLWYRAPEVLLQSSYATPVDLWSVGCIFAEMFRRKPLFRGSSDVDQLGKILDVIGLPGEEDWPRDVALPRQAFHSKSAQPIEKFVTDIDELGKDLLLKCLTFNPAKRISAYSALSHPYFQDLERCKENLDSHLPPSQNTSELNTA
Sequence of CDK6/cycD3 (P30281 whole entry partner): as the sequence (P30281 whole entry partner) above
Description: as §1, §16, §2, §20, §4, §5, §17, §18, §19, §7, §8, §9, §10, §11, §12, §13, §14, §15

[6] = biological target: CDK7/CyclinH/MAT1 (Homo sapiens, UniProt P50613); assay: Determination of CDK activity (Caliper mobility shift, FAM-P8 peptide): CDK7; conditions: read-out: CDK7 enzymatic inhibitory activity (IC50)
Sequence of CDK7/CyclinH/MAT1 (P50613 whole entry): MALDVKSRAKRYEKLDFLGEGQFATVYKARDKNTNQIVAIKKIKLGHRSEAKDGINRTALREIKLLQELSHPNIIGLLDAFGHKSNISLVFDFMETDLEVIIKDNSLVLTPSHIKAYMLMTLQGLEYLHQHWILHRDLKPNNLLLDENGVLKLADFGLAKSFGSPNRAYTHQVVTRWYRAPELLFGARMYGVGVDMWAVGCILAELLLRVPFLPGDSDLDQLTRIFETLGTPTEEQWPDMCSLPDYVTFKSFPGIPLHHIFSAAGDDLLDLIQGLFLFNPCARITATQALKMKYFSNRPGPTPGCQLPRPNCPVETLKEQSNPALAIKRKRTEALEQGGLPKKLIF
Sequence of CDK7/CyclinH/MAT1 (P51946 whole entry partner): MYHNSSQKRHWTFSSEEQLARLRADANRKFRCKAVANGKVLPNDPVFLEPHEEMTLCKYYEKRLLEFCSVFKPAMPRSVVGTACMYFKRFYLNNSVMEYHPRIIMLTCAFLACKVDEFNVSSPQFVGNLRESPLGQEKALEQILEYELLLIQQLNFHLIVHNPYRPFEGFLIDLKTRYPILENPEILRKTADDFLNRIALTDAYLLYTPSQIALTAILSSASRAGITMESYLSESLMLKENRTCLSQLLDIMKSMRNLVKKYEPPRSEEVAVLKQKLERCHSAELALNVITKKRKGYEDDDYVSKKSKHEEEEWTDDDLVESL
Sequence of CDK7/CyclinH/MAT1 (P51948 whole entry partner): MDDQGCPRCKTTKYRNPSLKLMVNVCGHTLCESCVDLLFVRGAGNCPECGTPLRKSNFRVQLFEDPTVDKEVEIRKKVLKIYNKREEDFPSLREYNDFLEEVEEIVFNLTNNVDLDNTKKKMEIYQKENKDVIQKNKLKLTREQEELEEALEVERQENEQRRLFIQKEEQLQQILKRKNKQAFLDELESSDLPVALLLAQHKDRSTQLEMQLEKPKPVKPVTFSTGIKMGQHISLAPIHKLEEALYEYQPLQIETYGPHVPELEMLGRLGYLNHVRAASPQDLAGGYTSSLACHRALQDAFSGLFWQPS
Description: as §1, §16, §2, §3, §4, §5, §17, §18, §19, §7, §8, §9, §10, §11, §12, §13, §14, §15

[7] = CDK9/cyclinTl, read-out: CDK9 enzymatic inhibitory activity (IC50)
[8] = CDK9 enzymatic inhibitory activity (IC50), CDK9/cyclinTl

Structure (SMILES)	IC50 [1, 7] [nM]	IC50 ([2]; CDK4/CycD3) [nM]	IC50 ([3]; CDK2/CycA2) [nM]	IC50 ([4]; CDK1/CyclinB) [nM]	IC50 ([5]; CDK6/cycD3) [nM]	IC50 ([6]; CDK7/CyclinH/MAT1) [nM]	IC50 ([1]; read-out: CDK9 enzymatic inhibitory activity (IC50)) [nM]	IC50 [2] [nM]	IC50 [3] [nM]	IC50 [4] [nM]	IC50 [5] [nM]	IC50 [6] [nM]	IC50 [1, 8] [nM]
Cc1nc2c(F)cc(-c3nc(Nc4ccc(C(C)C5CCNCC5)cn4)ncc3F)cc2n1C(C)C (single isomer, unassigned) [Example 20, (R or S)-5-fluoro-4-(4-fluoro-1-isopropyl-2-methyl-1H-benzo[d]imidazol-6-yl)-N-(5-(1-(piperidin-4-yl)ethyl)pyridin-2-yl) pyrimidin-2-amine]	500 to 1000	< 100	100 to 500	500 to 1000	100 to 500	1000 to 10000	–	–	–	–	–	–	–
Cc1nc2c(F)cc(-c3nc(Nc4ccc(C(O)C5CCNCC5)cn4)ncc3F)cc2n1C(C)C (stereo not drawn) [Example 42, (6-((5-Fluoro-4-(4-fluoro-1-isopropyl-2-methyl-1H-benzo[d]imidazol-6-yl)pyrimidin-2-yl)amino)pyridin-3-yl)(piperidin-4-yl) methanol hydrochloride]	–	–	–	–	–	–	100 to 500	100 to 500	< 100	100 to 500	100 to 500	100 to 500	–
Cc1nc2c(F)cc(-c3nc(Nc4ccc([C@H](C)C5CCN(C)CC5)cn4)ncc3F)cc2n1C(C)C (single isomer, unassigned) [Example 21]	100 to 500	< 100	< 100	100 to 500	< 100	1000 to 10000	–	–	–	–	–	–	–
Cc1nc2c(F)cc(-c3nc(Nc4ccc(C=C5CCN(C)CC5)cn4)ncc3F)cc2n1C(C)C [Example 60]	100 to 500	< 100	100 to 500	500 to 1000	100 to 500	1000 to 10000	–	–	–	–	–	–	–
CC[C@@H](c1ccc(Nc2ncc(F)c(-c3cc(F)c4nc(C)n(C(C)C)c4c3)n2)nc1)N1CCN(C)CC1 [Example 6]	–	< 100	1000 to 10000	10000 to 100000	100 to 500	1000 to 10000	–	–	–	–	–	–	1000 to 10000
COCCN1CCC([C@H](C)c2ccc(Nc3ncc(F)c(-c4cc(F)c5nc(C)n(C(C)C)c5c4)n3)nc2)CC1 (single isomer, unassigned) [Example 80]	100 to 500	< 100	100 to 500	500 to 1000	100 to 500	1000 to 10000	–	–	–	–	–	–	–
CC(=C1CCN(C)CC1)c1ccc(Nc2ncc(F)c(-c3cc(F)c4nc(C)n(C(C)C)c4c3)n2)nc1 [Example 62]	500 to 1000	< 100	100 to 500	500 to 1000	500 to 1000	1000 to 10000	–	–	–	–	–	–	–
Cc1nc2c(F)cc(-c3nc(Nc4ccc([C@@H](C)C5CCN(CC(F)(F)F)CC5)cn4)ncc3F)cc2n1C(C)C [Example 86]	100 to 500	< 100	100 to 500	500 to 1000	100 to 500	1000 to 10000	–	–	–	–	–	–	–
Cc1nc2c(F)cc(-c3nc(Nc4ccc(C=C5CCN(C6CC6)CC5)cn4)ncc3F)cc2n1C(C)C [Example 66]	100 to 500	< 100	< 100	100 to 500	< 100	1000 to 10000	–	–	–	–	–	–	–
CC[C@H](c1ccc(Nc2ncc(F)c(-c3cc(F)c4nc(C)n(C(C)C)c4c3)n2)nc1)N1CCN(C)CC1 [Example 7]	–	< 100	10000 to 100000	10000 to 100000	1000 to 10000	1000 to 10000	–	–	–	–	–	–	10000 to 100000
COCCCN1CCC([C@@H](C)c2ccc(Nc3ncc(F)c(-c4cc(F)c5nc(C)n(C(C)C)c5c4)n3)nc2)CC1 [Example 81]	100 to 500	< 100	< 100	100 to 500	< 100	1000 to 10000	–	–	–	–	–	–	–

More lines, main results first:

IC50 [1, 7] [nM]	IC50 ([2]; CDK4/CycD3) [nM]	IC50 ([3]; CDK2/CycA2) [nM]	IC50 ([4]; CDK1/CyclinB) [nM]	IC50 ([5]; CDK6/cycD3) [nM]	IC50 ([6]; CDK7/CyclinH/MAT1) [nM]	IC50 ([1]; read-out: CDK9 enzymatic inhibitory activity (IC50)) [nM]	IC50 [2] [nM]	IC50 [3] [nM]	IC50 [4] [nM]	IC50 [5] [nM]	IC50 [6] [nM]	Structure (SMILES)	IC50 [1, 8] [nM]
100 to 500	< 100	< 100	100 to 500	100 to 500	1000 to 10000	–	–	–	–	–	–	CCN1CCC([C@H](OC)c2ccc(Nc3ncc(F)c(-c4cc(F)c5nc(C)n(C(C)C)c5c4)n3)nc2)CC1 [Example 46]	–
100 to 500	< 100	< 100	100 to 500	< 100	1000 to 10000	–	–	–	–	–	–	CCN1CCC(C(C)c2ccc(Nc3ncc(F)c(-c4cc(F)c5nc(C)n(C(C)C)c5c4)n3)nc2)CC1 (racemic) [Example 16, N-(5-(1-(1-ethylpiperidin-4-yl)ethyl)pyridin-2-yl)-5-fluoro-4-(4-fluoro-1-isopropyl-2-methyl-1H-benzo[d]imidazol-6-yl)pyrimidin-2-amine]	–
100 to 500	< 100	100 to 500	100 to 500	100 to 500	500 to 1000	–	–	–	–	–	–	Cc1nc2c(F)cc(-c3nc(Nc4ccc([C@H](O)C5CCNCC5)cn4)ncc3F)cc2n1C(C)C [Example 43]	–
100 to 500	< 100	< 100	100 to 500	< 100	1000 to 10000	–	–	–	–	–	–	Cc1nc2c(F)cc(-c3nc(Nc4ccc([C@H](C)C5CCN(CC(F)F)CC5)cn4)ncc3F)cc2n1C(C)C [Example 83]	–
< 100	< 100	< 100	< 100	< 100	100 to 500	–	–	–	–	–	–	CCN1CCC(C(O)c2ccc(Nc3ncc(F)c(-c4cc(F)c5nc(C)n(C(C)C)c5c4)n3)nc2)CC1 (racemic) [Example 39, (1-Ethylpiperidin-4-yl)(6-((5-fluoro-4-(4-fluoro-1-isopropyl-2-methyl-1H-benzo[d]imidazol-6-yl)pyrimidin-2-yl)amino)pyridin-3-yl)methanol]	–
100 to 500	< 100	100 to 500	500 to 1000	100 to 500	1000 to 10000	–	–	–	–	–	–	Cc1nc2c(F)cc(-c3nc(Nc4ccc([C@@H](C)C5CCN(C6CC6)CC5)cn4)ncc3F)cc2n1C(C)C [Example 76]	–
100 to 500	< 100	< 100	100 to 500	< 100	1000 to 10000	–	–	–	–	–	–	CCN1CCC(C(OC(C)=O)c2ccc(Nc3ncc(F)c(-c4cc(F)c5nc(C)n(C(C)C)c5c4)n3)nc2)CC1 (single isomer, unassigned) [Example 72, (R or S)-(1-ethylpiperidin-4-yl) (6-((5-fluoro-4-(4-fluoro-1-isopropyl-2-methyl-1H-benzo[d]imidazol-6-yl)pyrimidin-2-yl)amino)pyridin-3-yl) methyl acetate]	–
